Common to all, as to type: biochemical
The target of experiment [1] is T1, Human Factor XIIa (hFXIIa) (Homo sapiens, UniProt P00748).
T1 construct: purchased Enzyme Research Laboratories
T1 sequence (P00748 373-615 limits assumed): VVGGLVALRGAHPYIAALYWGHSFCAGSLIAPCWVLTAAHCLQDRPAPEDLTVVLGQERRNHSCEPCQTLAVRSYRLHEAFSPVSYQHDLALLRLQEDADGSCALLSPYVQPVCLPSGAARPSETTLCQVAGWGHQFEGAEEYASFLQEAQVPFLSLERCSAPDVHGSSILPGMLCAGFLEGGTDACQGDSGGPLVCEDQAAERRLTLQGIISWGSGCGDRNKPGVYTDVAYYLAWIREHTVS
T1 sequence (P00748 20-372 partner limits assumed): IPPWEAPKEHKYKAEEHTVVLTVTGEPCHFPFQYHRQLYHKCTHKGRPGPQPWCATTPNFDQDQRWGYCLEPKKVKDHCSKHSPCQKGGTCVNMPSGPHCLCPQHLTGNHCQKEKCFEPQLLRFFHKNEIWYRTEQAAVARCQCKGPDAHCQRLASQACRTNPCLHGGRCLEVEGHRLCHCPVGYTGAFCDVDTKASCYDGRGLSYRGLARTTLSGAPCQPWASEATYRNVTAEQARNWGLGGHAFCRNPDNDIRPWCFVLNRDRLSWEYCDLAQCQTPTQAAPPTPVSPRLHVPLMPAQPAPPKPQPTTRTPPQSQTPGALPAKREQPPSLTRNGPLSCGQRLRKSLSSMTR
As to the kind of experiment: Determination of Human Factor XIIa (hFXIIa) inhibition, fluorogenic substrate IC50 assay. To be noted: fluorogenic substrate H-DPro-Phe-Arg-AFC at Km, 25° C., read-out: Human FXIIa IC50. The method, then:
Determination of Human Factor XIIa (hFXIIa) inhibition
The Km for the cleavage of the substrate by hFXIIa was determined by standard transformation of the Michaelis-Menten equation, with subsequent inhibition assays performed at substrate Km concentration.

Experiment [2] concerns the target FXa (Homo sapiens, UniProt P00742). As to the kind of experiment: Related protease inhibition: FXa, fluorogenic substrate. To be noted: fluorogenic substrate at Km, 25° C., H1-H3 = % activity at 40 μM; for activity at 40 µM: read-out: IC50 (human FXa) nM. The procedure:
(§1) Human serine protease enzyme Plasma Kallikrein, KLK1, FXa, Plasmin, Thrombin and Trypsin were assayed for enzymatic activity using an appropriate fluorogenic substrate at Km concentration, FXIa at fixed substrate concentration of 100 μM and various concentrations of the test compound.

Experiment [3] has as its target Thrombin (Homo sapiens, UniProt P00734). The experiment in a line: Related protease inhibition: Thrombin, fluorogenic substrate. To be noted: fluorogenic substrate at Km, 25° C., H1-H3 = % activity at 40 μM; for activity at 40 µM: read-out: IC50 (human thrombin) nM. The method, then: as §1

pIC50: −log10 of the molar value. Where only a bound is given, the exact number is not on record here.

Chain of FXa (P00742 235-488 limits assumed): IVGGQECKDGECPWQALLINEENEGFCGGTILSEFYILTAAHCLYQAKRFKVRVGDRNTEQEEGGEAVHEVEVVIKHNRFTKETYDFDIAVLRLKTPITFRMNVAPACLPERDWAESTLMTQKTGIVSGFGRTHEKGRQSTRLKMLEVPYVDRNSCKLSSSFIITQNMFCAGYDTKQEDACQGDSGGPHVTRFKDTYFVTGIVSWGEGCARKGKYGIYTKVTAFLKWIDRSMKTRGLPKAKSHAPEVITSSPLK
Chain of FXa (P00742 41-179 partner limits assumed): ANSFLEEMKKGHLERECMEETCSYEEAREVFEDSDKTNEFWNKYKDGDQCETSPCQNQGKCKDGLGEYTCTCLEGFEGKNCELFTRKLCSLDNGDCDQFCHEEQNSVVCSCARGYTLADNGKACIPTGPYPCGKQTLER

For `COCc1nn(-c2cccc(C#N)c2C)c2c1CCN(c1ccc3c(c1)C(=O)N(C)CC3)C2=O` [Example 2038, 3-(3-(Methoxymethyl)-6-(2-methyl-1-oxo-1,2,3,4-tetrahydroisoquinolin-7-yl)-7-oxo-4,5,6,7-tetrahydro-1H-pyrazolo[3,4-c]pyridin-1-yl)-2-methylbenzonitrile], the pIC50 in experiment [1] was 4.40 to 5.00. Further, the activity at 40 µM in experiment [2] and in experiment [3] was above 80% throughout.
Take `CCNC(=O)c1nn(-c2ccc(Cl)c(C)c2)c2c1CCN(c1ccc3c(c1)C(=O)N(C)CC3)C2=O` [Example 2057, 1-(4-chloro-3-methylphenyl)-N-ethyl-6-(2-methyl-1-oxo-1,2,3,4-tetrahydroisoquinolin-7-yl)-7-oxo-4,5,6,7-tetrahydro-1H-pyrazolo[3,4-c]pyridine-3-carboxamide]: the pIC50 in experiment [1] is 5.52 to 6.00. In addition, the activity at 40 µM in experiment [2] and in experiment [3] was 20 to 80% each time.
Consider `CCNC(=O)c1nn(-c2cccc(Cl)c2)c2c1CCN(c1cccc(N3C(=O)C[C@H]4CCC[C@H]43)c1)C2=O` [Example 1413, 1-(3-chlorophenyl)-N-ethyl-7-oxo-6-(3-((3aR,6aR)-2-oxohexahydrocyclopenta[b]pyrrol-1(2H)-yl)phenyl)-4,5,6,7-tetrahydro-1H-pyrazolo[3,4-c]pyridine-3-carboxamide], for which, in experiment [1], the pIC50 is 4.40 to 5.00. For the same molecule, the values for the activity at 40 µM in experiment [2] and in experiment [3] were above 80% and 20 to 80%, respectively.
For `CCNC(=O)c1nn(-c2cccc(Cl)c2)c2c1CCN(c1cccc(N3CCN(C(C)C)C3=O)c1)C2=O` [Example 1409, 1-(3-chlorophenyl)-N-ethyl-6-(3-(3-isopropyl-2-oxoimidazolidin-1-yl)phenyl)-7-oxo-4,5,6,7-tetrahydro-1H-pyrazolo[3,4-c]pyridine-3-carboxamide], in that order: 5.00 to 5.52, above 80% and above 80%.
The like results for `CN1CCc2ccc(N3CCc4cnn(-c5cc(Cl)cc(CN)c5)c4C3=O)cc2C1=O` [Example 2047, 7-(1-(3-(aminomethyl)-5-chlorophenyl)-7-oxo-1,4,5,7-tetrahydro-6H-pyrazolo[3,4-c]pyridin-6-yl)-2-methyl-3,4-dihydroisoquinolin-1(2H)-one] were, in that order, 4.40 to 5.00, above 80% and above 80%.
The like results for `CCNC(=O)c1nn(-c2cccc(C#N)c2C)c2c1CCN(c1ccc3c(c1)C(=O)N(C)CC3)C2=O` [Example 2042, 1-(3-cyano-2-methylphenyl)-N-ethyl-6-(2-methyl-1-oxo-1,2,3,4-tetrahydroisoquinolin-7-yl)-7-oxo-4,5,6,7-tetrahydro-1H-pyrazolo[3,4-c]pyridine-3-carboxamide] were, in that order, 4.40 to 5.00, above 80% and 20 to 80%.
For the molecule `CN1CCc2ccc(N3CCc4c(C(=O)NC5CNCC5(F)F)nn(-c5cccc(Cl)c5)c4C3=O)cc2C1=O` (stereo not drawn) [Example 1425, 1-(3-chlorophenyl)-N-(4,4-difluoropyrrolidin-3-yl)-6-(2-methyl-1-oxo-1,2,3,4-tetrahydroisoquinolin-7-yl)-7-oxo-4,5,6,7-tetrahydro-1H-pyrazolo[3,4-c]pyridine-3-carboxamide], the pIC50 in experiment [1] was 6.00 to 6.52. Also, the activity at 40 µM in experiment [2] and in experiment [3] was above 80% each time.
For `CN1CCc2ccc(N3CCc4c(C(=O)N[C@@H]5COC[C@@H]5O)nn(-c5cccc(Cl)c5)c4C3=O)cc2C1=O` [Example 1412, 1-(3-chlorophenyl)-N-((3R,4R)-4-hydroxytetrahydrofuran-3-yl)-6-(2-methyl-1-oxo-1,2,3,4-tetrahydroisoquinolin-7-yl)-7-oxo-4,5,6,7-tetrahydro-1H-pyrazolo[3,4-c]pyridine-3-carboxamide], the pIC50 in experiment [1] was 6.00 to 6.52. For the same molecule, the activity at 40 µM in experiment [2] and in experiment [3] was 20 to 80% throughout.
Consider `CN1CCc2ccc(N3CCc4c(C(=O)NC5CCCC5)nn(-c5cccc(Cl)c5)c4C3=O)cc2C1` [Example 1044, 1-(3-chlorophenyl)-N-cyclopentyl-6-(2-methyl-1,2,3,4-tetrahydroisoquinolin-7-yl)-7-oxo-4,5,6,7-tetrahydro-1H-pyrazolo[3,4-c]pyridine-3-carboxamide], for which the pIC50 in experiment [1] is 6.52 to 7.00; in experiment [2], 5.00 to 5.52; in experiment [3], below 4.00.
The like results for `COCCN1CCc2ccc(N3CCc4c(C(=O)NCC5CC5)nn(-c5cccc(Cl)c5)c4C3=O)cc2C1` [Example 1037, 1-(3-chlorophenyl)-N-(cyclopropylmethyl)-6-(2-(2-methoxyethyl)-1,2,3,4-tetrahydroisoquinolin-7-yl)-7-oxo-4,5,6,7-tetrahydro-1H-pyrazolo[3,4-c]pyridine-3-carboxamide] were, in that order, 7.00 to 8.00, below 4.00 and below 4.00.
The like results for `CN1CCc2ccc(N3CCc4c(C(=O)NCC5CC5)nn(-c5cccc(CN)c5)c4C3=O)cc2C1=O` [Example 2019, 1-(3-(aminomethyl)phenyl)-N-(cyclopropylmethyl)-6-(2-methyl-1-oxo-1,2,3,4-tetrahydroisoquinolin-7-yl)-7-oxo-4,5,6,7-tetrahydro-1H-pyrazolo[3,4-c]pyridine-3-carboxamide] were, in that order, 6.52 to 7.00, 4.40 to 5.00 and 4.40 to 5.00.
Take `CCNC(=O)c1nn(-c2cccc(Cl)c2)c2c1CCN(c1cc3c(cn1)OCCN(C)C3=O)C2=O` [Example 1418, 1-(3-chlorophenyl)-N-ethyl-6-(4-methyl-5-oxo-2,3,4,5-tetrahydropyrido[4,3-f][1,4]oxazepin-7-yl)-7-oxo-4,5,6,7-tetrahydro-1H-pyrazolo[3,4-c]pyridine-3-carboxamide]: the pIC50 in experiment [1] is 6.00 to 6.52. Moreover, the activity at 40 µM in experiment [2] was 20 to 80%; in experiment [3] it was above 80%.
For `CN1CCc2ccc(N3CCc4c(C(=O)NCC(=O)O)nn(-c5cc(Cl)cc(CN)c5)c4C3=O)cc2C1=O` [Example 2056, (1-(3-(aminomethyl)-5-chlorophenyl)-6-(2-methyl-1-oxo-1,2,3,4-tetrahydroisoquinolin-7-yl)-7-oxo-4,5,6,7-tetrahydro-1H-pyrazolo[3,4-c]pyridine-3-carbonyl)glycine], the pIC50 in experiment [1] was 7.00 to 8.00. Further, the activity at 40 µM is 20 to 80% in experiment [2] and above 80% in experiment [3].
For `CCNC(=O)c1nn(-c2cccc(Cl)c2)c2c1CCN(c1cccc(N3CC4CC4C3)c1)C2=O` (stereo not drawn) [Example 1431, 6-(3-(3-azabicyclo[3.1.0]hexan-3-yl)phenyl)-1-(3-chlorophenyl)-N-ethyl-7-oxo-4,5,6,7-tetrahydro-1H-pyrazolo[3,4-c]pyridine-3-carboxamide], in that order: 4.40 to 5.00, below 20% and 20 to 80%.
For `CN1CCc2ccc(N3CCc4c(C(=O)N[C@@H]5COC[C@H]5O)nn(-c5cccc(Cl)c5)c4C3=O)cc2C1=O` [Example 1411, 1-(3-chlorophenyl)-N-((3R,4S)-4-hydroxytetrahydrofuran-3-yl)-6-(2-methyl-1-oxo-1,2,3,4-tetrahydroisoquinolin-7-yl)-7-oxo-4,5,6,7-tetrahydro-1H-pyrazolo[3,4-c]pyridine-3-carboxamide], in that order: 6.00 to 6.52, above 80% and above 80%.

The term pIC50 denotes the IC50 on a negative log10 scale, so that one unit is a factor of ten.
